For data set [1], the target named is T1, pancreatic cholesterol esterase (CEase) (Sus scrofa, UniProt A0A286ZKB1).
T1 construct: gene CEL
T1 sequence (A0A286ZKB1 96-682): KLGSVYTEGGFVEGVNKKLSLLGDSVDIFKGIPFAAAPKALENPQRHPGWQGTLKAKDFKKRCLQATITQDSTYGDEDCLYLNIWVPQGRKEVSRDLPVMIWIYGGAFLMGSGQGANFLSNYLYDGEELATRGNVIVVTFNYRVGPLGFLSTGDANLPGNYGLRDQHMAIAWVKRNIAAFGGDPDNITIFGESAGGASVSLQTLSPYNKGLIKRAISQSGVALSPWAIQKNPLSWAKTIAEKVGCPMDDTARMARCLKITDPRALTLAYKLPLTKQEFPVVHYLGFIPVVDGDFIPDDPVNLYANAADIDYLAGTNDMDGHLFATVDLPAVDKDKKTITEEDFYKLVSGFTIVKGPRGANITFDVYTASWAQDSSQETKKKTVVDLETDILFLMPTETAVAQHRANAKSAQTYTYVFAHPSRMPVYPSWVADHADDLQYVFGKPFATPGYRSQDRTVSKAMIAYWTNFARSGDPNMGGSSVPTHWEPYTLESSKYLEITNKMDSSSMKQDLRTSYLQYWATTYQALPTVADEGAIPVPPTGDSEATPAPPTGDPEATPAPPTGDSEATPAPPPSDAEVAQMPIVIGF
In words: time-dependent (pseudo substrate) inhibition kinetics, PNPB hydrolysis at […] nm. Type of data set: biochemical.

The target in data set [2] is T1, pancreatic cholesterol esterase (CEase). The experiment in a line: protection of the enzyme against carbamate inactivation by […] TFA. Type of data set: biochemical.
Substrate in the data set “purified protein”: CCCC(=O)Oc1ccc([N+](=O)[O-])cc1
The experiment in a line: purified protein. Format: biochemical, Sus scrofa.

Where a name gives a salt, the structure may show the parent alone.

Take `C[C@@H](NC(=O)Oc1ccc2ccccc2c1-c1c(O)ccc2ccccc12)c1ccccc1` [(1R, αR)-1, 2'-N-(R)-α-methylbenzylcarbamyl-(R)-1, 1'-bi-2-naphthol]: in data set [1], the KI (inactivation) was 200 ± 10 nM.

`C[C@H](NC(=O)Oc1ccc2ccccc2c1-c1c(O)ccc2ccccc12)c1ccccc1` [(1R, αS)-1, 2'-N-(S)-α-methylbenzylcarbamyl-(R)-1, 1'-bi-2-naphthol] showed a KI (inactivation) in data set [1] of 500 ± 30 nM.

`C[C@@H](NC(=O)Oc1ccc2ccccc2c1-c1c(O)ccc2ccccc12)c1ccccc1` [(1S, αR)-1, 2'-N-(R)-α-methylbenzylcarbamyl-(S)-1, 1'-bi-2-naphthol] returned a KI (inactivation) in data set [1] of 2000 ± 100 nM.

In data set [1], `C[C@H](NC(=O)Oc1ccc2ccccc2c1-c1c(O)ccc2ccccc12)c1ccccc1` [(1S, αS)-1, 2'-N-(S)-α-methylbenzylcarbamyl-(S)-1, 1'-bi-2-naphthol] showed a KI (inactivation) of 6000 ± 400 nM.

For the molecule `O=C(c1ccccc1)C(F)(F)F` [TFA, trifluoroacetophenone], the “protection of the enzyme against carbamate inactivation by 2 μM TFA” value in data set [2] is “the enzyme is protected from inhibition by carbamate by binding of TFA”.

B1: pancreatic cholesterol esterase (CEase) (Sus scrofa) (protein)
chain: T1 sequence (A0A286ZKB1 96-682)
Regarding B1, the Km – broadly, the substrate concentration at which the rate is half of its maximum – in the data set “purified protein” came to 140 ± 10 µM.

The values are drawn from publication PMC1262691, “Probing stereoselective inhibition of the acyl binding site of cholesterol esterase with four diastereomers of 2'-N-α-methylbenzylcarbamyl-1, 1'-bi-2-naphthol” (BMC Biochemistry, 2005).
